# In BindingDB's records for doi:10.7270/Q2N301S8 (D3R/Abbott, 2020):
# Molecular target: Beta-secretase 1 (Homo sapiens, UniProt P56817)
# Assay: D3R2027
# Text: D3R2027
# Chain of Beta-secretase 1 (P56817 whole entry): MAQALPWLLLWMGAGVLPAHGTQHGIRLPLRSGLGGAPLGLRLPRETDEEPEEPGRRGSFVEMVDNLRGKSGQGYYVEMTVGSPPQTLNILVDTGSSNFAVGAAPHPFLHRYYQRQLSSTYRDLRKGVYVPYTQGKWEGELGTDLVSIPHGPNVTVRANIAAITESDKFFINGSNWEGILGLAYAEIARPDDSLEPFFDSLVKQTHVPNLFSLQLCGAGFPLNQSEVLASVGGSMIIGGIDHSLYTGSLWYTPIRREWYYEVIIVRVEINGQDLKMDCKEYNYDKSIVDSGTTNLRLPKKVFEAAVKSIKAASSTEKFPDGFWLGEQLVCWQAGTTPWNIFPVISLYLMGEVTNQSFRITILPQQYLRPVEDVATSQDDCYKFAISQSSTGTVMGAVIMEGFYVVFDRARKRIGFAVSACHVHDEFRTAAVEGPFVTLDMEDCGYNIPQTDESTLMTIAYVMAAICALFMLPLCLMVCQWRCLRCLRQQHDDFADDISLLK
row,Compound,IC50 [nM]
1,CCOc1ccc(C(F)(F)F)c(CNC[C@@H](O)[C@@H]2C[C@H](C)CCCCCCCCC(=O)N(C)[C@@H](C)C(=O)N2)c1 [BACE_24],53
2,CC(C)c1cccc(CNC[C@@H](O)[C@@H]2C[C@H](C)CCCCCCCCc3cc(ccn3)C(=O)N2)c1 [BACE_53],10000
3,C[C@@H]1CCCCCCCOc2cc(cc(-c3ncco3)c2)C(=O)N[C@H]([C@H](O)CNC2(c3cc(C(C)(C)C)ccn3)CC2)C1 [BACE_81],8.5
4,COCc1cc2cc(c1)C(=O)N[C@H]([C@H](O)CN)Cc1cccc(c1)OCCCCN2 [BACE_126],13000
5,CC(C)c1cccc(CNC[C@@H](O)[C@@H]2Cc3cccc(c3)CCCCOc3cncc(c3)C(=O)N2)c1 [BACE_137],480
6,C[C@@H]1CCCCCCCNc2cccc(c2)C(=O)N[C@H]([C@H](O)CNCc2cc(C(C)(C)C)[nH]n2)C1 [BACE_58],1900
7,CC(C)(NC[C@@H](O)[C@@H]1Cc2cccc(c2)CCCCNc2cc(c[n+](Cc3ccccc3)c2)C(=O)N1)c1cccc(Br)c1 [BACE_121],3600
8,CC(C)(C)c1ccnc(C2(NC[C@@H](O)[C@@H]3Cc4cccc(c4)CCCCNc4cc(cc(-c5ncco5)c4)C(=O)N3)CC2)c1 [BACE_119],1.5
9,C/C1=C\[C@@H]([C@H](O)CNCc2cccc(C(C)C)c2)NC(=O)c2cc(Cl)nc(c2)NCCCCOCC1 [BACE_49],470
10,Cc1cc2cc(n1)OCCCCc1cc(cc(Cl)c1O)C[C@@H]([C@H](O)CNC(C)(C)c1cccc(C(C)C)c1)NC2=O [BACE_107],47
11,CCCc1cc(CNC[C@@H](O)[C@@H]2C[C@H](C)CCCCCCCNc3cc(COC)cc(c3)C(=O)N2)no1 [BACE_64],570
12,CCCCNC(=O)[C@H](C)C[C@H](O)[C@@H]1C[C@H](C)CCCCCCC[C@H](NC(=O)OC(C)(C)C)C(=O)N[C@@H](C)C(=O)N1 [BACE_149],3
13,CC(C)c1cccc(CNC[C@@H](O)[C@@H]2Cc3cccc(c3)OCCCCS(=O)(=O)C[C@@H](C)C(=O)N2)c1 [BACE_94],29
14,C[C@H]1C(=O)N[C@H]([C@H](O)CNCc2cncc(C3CC3)c2)Cc2cccc(c2)CCCCCCC(=O)N1C [BACE_87],1100
15,CCCCNC(=O)[C@H](C)C[C@H](O)[C@@H]1Cc2cccc(c2)CCCCCNc2cc(cc(OC)n2)C(=O)N1 [BACE_154],130
16,C[C@@H]1CCCCCCCOc2cc(cc(C(=O)N(C)C)c2)C(=O)N[C@H]([C@H](O)CNC2(c3cc(C(C)(C)C)ccn3)CC2)C1 [BACE_83],6
17,COc1cc2cc(n1)NCCCCCCC[C@@H](C)C[C@@H]([C@H](O)CNCc1cccc(C(C)C)c1)NC2=O [BACE_43],14
18,CCOc1cc(CNC[C@@H](O)[C@@H]2C[C@H](C)CCOCCCCNc3cccc(c3)C(=O)N2)cc(C(F)(F)F)c1 [BACE_73],6300
19,C[C@@H]1CCCCCCCCC(=O)N(C)[C@@H](C)C(=O)N[C@H]([C@H](O)CNC(C)(C)c2cccc(Br)c2)C1 [BACE_28],230

# The remaining compounds from weak to strong by IC50, led by results:
row,IC50 [nM],Compound
1,61000,C[C@@H]1CCCCCCCCC(=O)N(C)[C@@H](C)C(=O)N[C@H]([C@H](O)CO)C1 [BACE_143]
2,5600,COCc1cc2cc(c1)C(=O)N[C@H]([C@H](O)CNCc1cc(C(F)(F)F)ccc1F)C[C@H](C)CCOCCCCN2 [BACE_76]
3,4300,CC(C)c1cccc(CNC[C@@H](O)[C@@H]2Cc3ccc(O)c(c3)Cc3ccccc3OCC(=O)N[C@@H](C)C(=O)N2)c1 [BACE_88]
4,1900,CC(C)c1cccc(CNC[C@@H](O)[C@@H]2C[C@H](C)CCCCCCCN(S(C)(=O)=O)c3cc(cc(N(C)S(C)(=O)=O)c3)C(=O)N2)c1 [BACE_69]
5,1700,COCc1cc2cc(c1)C(=O)N[C@H]([C@H](O)CNCCc1ccncc1)C[C@H](C)CCCCCCCN2 [BACE_65]
6,1600,Cc1cc2cc(n1)CCCCCc1cccc(c1)C[C@@H]([C@H](O)CNCc1cccc(C(C)C)c1)NC2=O [BACE_113]
7,690,CCCCNC(=O)[C@H](C)C[C@H](O)[C@@H]1Cc2cccc(c2)OCCCCCC(=O)N[C@@H](C)C(=O)N1 [BACE_153]
8,290,CC(C)(NC[C@@H](O)[C@@H]1Cc2cccc(c2)OCCCCOc2cncc(c2)C(=O)N1)c1cccc(Br)c1 [BACE_138]
9,170,C[C@H]1C(=O)N[C@H]([C@H](O)CNC2(c3cccc(Br)c3)CC2)Cc2cccc(c2)OCCCCCC(=O)N1C [BACE_90]
10,130,CC(C)Cc1cncc(CNC[C@@H](O)[C@@H]2C[C@H](C)CC/C=C/CCCCC(=O)N(C)[C@@H](C)C(=O)N2)c1 [BACE_25]
11,120,CCCCNC(=O)[C@H](C)C[C@H](O)[C@@H]1Cc2ccc(O)c(c2)Cc2ccccc2OCC(=O)N[C@@H](C)C(=O)N1 [BACE_157]
12,120,CC(C)c1cccc(C(C)(C)NC[C@@H](O)[C@@H]2Cc3cc(F)c(N)c(c3)CCCCNc3cccc(c3)C(=O)N2)c1 [BACE_116]
13,100,Cc1cc2cc(n1)NC/C=C\COc1cc(ccc1F)C[C@@H]([C@H](O)CNC1(c3cccc(C(C)(C)C)c3)CC1)NC2=O [BACE_102]
14,69,C[C@@H]1CC(=O)NCCCCOc2cccc(c2)C[C@@H]([C@H](O)CNCc2cccc(C(C)(C)C)c2)NC1=O [BACE_92]
15,68,C[C@@H]1CS(=O)(=O)CCCCOc2cccc(c2)C[C@@H]([C@H](O)CNC2(c3cccc(Br)c3)CC2)NC1=O [BACE_95]
16,68,CC(C)c1cccc(CNC[C@@H](O)[C@@H]2C[C@H](C)CCCCCCCOc3cc(cc(-c4ncco4)c3)C(=O)N2)c1 [BACE_80]
17,29,CC(C)c1cccc(CNC[C@@H](O)[C@@H]2C[C@H](C)CCCCCCCOc3cc(cc(Cl)n3)C(=O)N2)c1 [BACE_51]
18,14,COCc1cc2cc(c1)C(=O)N[C@H]([C@H](O)CNCc1cc(CC(C)(C)C)on1)Cc1cccc(c1)OCCCCN2 [BACE_129]
19,5.5,COCc1cc2cc(n1)NCCCCOCC[C@@H](C)C[C@@H]([C@H](O)CNC1(c3cccc(C(C)(C)C)c3)CC1)NC2=O [BACE_47]
20,3,Cc1cc2cc(n1)OCCCCOc1cccc(c1)C[C@@H]([C@H](O)CN[C@H]1CC(C)(C)Oc3ccc(C(C)C)cc31)NC2=O [BACE_111]
21,1.7,C[C@@H]1CCCCCCCNc2cc(cc(-c3ncco3)c2)C(=O)N[C@H]([C@H](O)CNC2(c3cc(C(C)(C)C)ccn3)CC2)C1 [BACE_59]
22,1,C[C@@H]1CCCCCCCCC(=O)N(C)[C@@H](C)C(=O)N[C@H]([C@H](O)CN[C@@H](C)c2cc(CC(C)(C)C)on2)C1 [BACE_30]
